Assay [1] concerns the target human plasma kallikrein (Homo sapiens, UniProt P03952). Kind of assay: Kallikrein inhibition assay (FLINT) utilizing a quenched AMC peptide substrate Z-Gly-Pro-Arg-AMC. Format: biochemical. The note with it: kinetic (KIN) reads, read-out: Kallikrein KIN Inh IC50. In short, it runs like this: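 Human plasma kallikrein (2 nM final) pre-incubated 30 min with compound (11-point 3-fold series, top 1 μM, 2% DMSO), then 50 μM Z-Gly-Pro-Arg-AMC added. Buffer 50 mM Tris pH 7.5, 100 mM NaCl, 5 mM CaCl2, BSA, CHAPS. AMC fluorescence (340/440 nm) read kinetically over 30 min at room temperature, IC50 by 4-parameter logistic fit.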

Assay [2] has as its target Factor XIa (Homo sapiens, UniProt P03951). Kind of assay: Factor XIa inhibition assay (FLINT) utilizing a fluorophore-quencher pair peptide substrate 5Fam-[…]-K5Tamra. The note with it: kinetic (KIN) reads, read-out: FXIa KIN Inh IC50. Format: biochemical. The gist of the method:
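FXIa was preincubated with compound for 30 min at room temperature in Tris pH 7.5 buffer containing CaCl2, BSA and CHAPS, then reacted with 15 μM quenched 5Fam/Tamra peptide substrate. Fluorescence (485/520 nm) was read kinetically every 5 min for 30 min.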

Like-named read-outs stand apart in the source and are kept apart here.

Sequence of human plasma kallikrein (P03952 391-638 limits assumed): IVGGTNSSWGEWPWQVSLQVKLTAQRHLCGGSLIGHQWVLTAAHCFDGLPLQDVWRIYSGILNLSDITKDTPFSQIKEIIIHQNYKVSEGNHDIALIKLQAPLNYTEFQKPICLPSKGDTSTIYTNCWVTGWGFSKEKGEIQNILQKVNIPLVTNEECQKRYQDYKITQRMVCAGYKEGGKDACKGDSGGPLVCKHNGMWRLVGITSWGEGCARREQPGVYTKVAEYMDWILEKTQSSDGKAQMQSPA
Sequence of human plasma kallikrein (P03952 20-390 partner limits assumed): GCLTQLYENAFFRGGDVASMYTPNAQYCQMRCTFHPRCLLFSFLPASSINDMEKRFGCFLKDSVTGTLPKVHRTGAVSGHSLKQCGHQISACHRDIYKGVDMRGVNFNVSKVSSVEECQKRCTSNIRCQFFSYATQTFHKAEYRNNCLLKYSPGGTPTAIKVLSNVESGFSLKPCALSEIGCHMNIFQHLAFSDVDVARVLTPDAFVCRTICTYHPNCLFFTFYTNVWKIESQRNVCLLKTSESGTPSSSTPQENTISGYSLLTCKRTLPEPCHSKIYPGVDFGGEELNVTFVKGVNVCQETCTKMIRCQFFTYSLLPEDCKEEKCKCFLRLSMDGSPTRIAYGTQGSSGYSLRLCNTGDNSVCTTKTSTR
Sequence of Factor XIa (P03951 388-625 limits assumed): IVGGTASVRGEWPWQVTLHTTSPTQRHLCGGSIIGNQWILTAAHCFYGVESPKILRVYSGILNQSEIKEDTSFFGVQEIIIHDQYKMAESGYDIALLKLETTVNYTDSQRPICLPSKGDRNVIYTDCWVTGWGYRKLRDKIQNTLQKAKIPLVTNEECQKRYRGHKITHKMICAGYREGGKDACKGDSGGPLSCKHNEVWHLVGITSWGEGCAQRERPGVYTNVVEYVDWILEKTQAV
Sequence of Factor XIa (P03951 19-387 partner limits assumed): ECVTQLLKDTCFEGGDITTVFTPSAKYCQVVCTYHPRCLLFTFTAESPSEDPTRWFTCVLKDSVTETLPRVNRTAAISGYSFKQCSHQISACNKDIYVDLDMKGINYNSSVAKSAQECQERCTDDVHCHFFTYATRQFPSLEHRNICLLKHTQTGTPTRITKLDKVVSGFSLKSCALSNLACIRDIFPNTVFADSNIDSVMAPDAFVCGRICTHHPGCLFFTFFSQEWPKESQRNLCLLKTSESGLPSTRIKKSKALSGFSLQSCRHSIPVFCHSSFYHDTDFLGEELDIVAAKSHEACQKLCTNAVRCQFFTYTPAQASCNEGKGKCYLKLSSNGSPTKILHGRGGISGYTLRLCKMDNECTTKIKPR

As usually defined, the IC50 is the concentration that gives 50% inhibition. For the compound `C[C@@H]1C[C@H](c2nc(-c3ncc(N)nc3Cl)c[nH]2)n2c1nc(-c1c(-n3cnnn3)ccc(Cl)c1F)cc2=O` (single isomer, unassigned) [Example 94, (6*R,8R)-6-(4-(5-Amino-3-chloropyrazin-2-yl)-1H-imidazol-2-yl)-2-(3-chloro-2-fluoro-6-(1H-tetrazol-1-yl)phenyl)-8-methyl-7,8-dihydropyrrolo[1,2-a]pyrimidin-4(6H)-one], the figures for the IC50 in assay [1] (values in nM) and in assay [2] (values in nM) were 12 nM and 1.2 nM, respectively.

`C[C@H]1C[C@@H](c2cnc(-c3ccc(N)nc3F)[nH]2)n2c1cc(-c1c(-n3cnnn3)ccc(Cl)c1F)cc2=O` (stereo in doubt) [Example 54, (1 S*,3S*)-3-(2-(6-Amino-2-fluoropyridin-3-yl)-1H-imidazol-5-yl)-7-(3-chloro-2-fluoro-6-(1H-tetrazol-1-yl)phenyl)-1-methyl-2,3-dihydroindolizin-5(1H)-one]: the values for the IC50 in assay [1] (unit μM) and in assay [2] (values in nM) were greater than 10000 nM and 430 nM, respectively.

For `C[C@@H]1C[C@H](c2ncc(-c3cnns3)[nH]2)n2c1nc(-c1c(-n3cnnn3)ccc(Cl)c1F)cc2=O` (relative stereo) [Example 105, (6*R,8*R)-6-(5-(1,2,3-Thiadiazol-5-yl)-1H-imidazol-2-yl)-2-(3-chloro-2-fluoro-6-(1H-tetrazol-1-yl)phenyl)-8-methyl-7,8-dihydropyrrolo[1,2-a]pyrimidin-4(6H)-one], the IC50 in assay [1] (unit μM) and in assay [2] (unit μM) was greater than 10000 nM each time.

With `C[C@H]1C[C@H](c2ncc(-c3ncc(N)nc3C3CC3)[nH]2)n2c1nc(-c1c(-n3cnnn3)ccc(Cl)c1F)cc2=O` (relative stereo) [Example 90, (6*R,8*S)-6-(5-(5-Amino-3-cyclopropylpyrazin-2-yl)-1H-imidazol-2-yl)-2-(3-chloro-2-fluoro-6-(1H-tetrazol-1-yl)phenyl)-8-methyl-7,8-dihydropyrrolo[1,2-a]pyrimidin-4(6H)-one], the figures for the IC50 in assay [1] (values in nM) and in assay [2] (values in nM) were 298 nM and 21.4 nM, respectively.

On to `C[C@@H]1C[C@@H](c2ncc(-c3ccnc(CO)c3F)[nH]2)n2c1cc(-c1c(-n3cnnn3)ccc(Cl)c1F)cc2=O` (relative stereo) [Example 1, (1R*,3S*)-7-(3-Chloro-2-fluoro-6-(1H-tetrazol-1-yl)phenyl)-3-(5-(3-fluoro-2-(hydroxymethyl)pyridin-4-yl)-1H-imidazol-2-yl)-1-methyl-2,3-dihydroindolizin-5(1H)-one], for which the results for the IC50 in assay [1] (values in nM) and in assay [2] (values in nM) were 47 nM and 11 nM, respectively.

Take `C[C@H]1C[C@@H](c2ncc(-c3ccn4nccc4c3)[nH]2)n2c1cc(-c1c(-n3cnnn3)ccc(Cl)c1F)cc2=O` (stereo in doubt) [Example 53, (1*S,3*S)-7-(3-Chloro-2-fluoro-6-(1H-tetrazol-1-yl)phenyl)-1-methyl-3-(5-(pyrazolo[1,5-a]pyridin-5-yl)-1H-imidazol-2-yl)-2,3-dihydroindolizin-5(1H)-one]: the values for the IC50 in assay [1] (values in nM) and in assay [2] (values in nM) were 54 nM and 43.7 nM, respectively.

As for `Cc1nc(N)cnc1-c1cnc([C@@H]2CC(C)c3nc(-c4c(-n5cnnn5)ccc(Cl)c4F)cc(=O)n32)[nH]1` (stereo partly drawn) [Example 95, (6S)-6-(5-(5-Amino-3-methylpyrazin-2-yl)-1H-imidazol-2-yl)-2-(3-chloro-2-fluoro-6-(1H-tetrazol-1-yl)phenyl)-8-methyl-7,8-dihydropyrrolo[1,2-a]pyrimidin-4(6H)-one], the figures for the IC50 in assay [1] (values in nM) and in assay [2] (values in nM) were 71.7 nM and 5.3 nM, respectively.

`C[C@H]1C[C@@H](c2ncc(-c3ncc(N)nc3C(F)(F)F)[nH]2)n2c1nc(-c1c(-n3cnnn3)ccc(Cl)c1F)cc2=O` (relative stereo) [Example 83, (6*S,8*S)-6-(5-(5-Amino-3-(trifluoromethyl)pyrazin-2-yl)-1H-imidazol-2-yl)-2-(3-chloro-2-fluoro-6-(1H-tetrazol-1-yl)phenyl)-8-methyl-7,8-dihydropyrrolo[1,2-a]pyrimidin-4(6H)-one]: the IC50 in assay [1] (values in nM) is 377 nM; in assay [2] (values in nM), 56.2 nM.

For `COC(=O)Nc1ccc(-c2cnc([C@@H]3C[C@@H](C)c4nc(-c5c(-n6cnnn6)ccc(Cl)c5F)cc(=O)n43)[nH]2)cn1` (stereo in doubt) [Example 118, Methyl (5-(2-((6*S,8*R)-2-(3-Chloro-2-fluoro-6-(1H-tetrazol-1-yl)phenyl)-8-methyl-4-oxo-4,6,7,8-tetrahydropyrrolo[1,2-a]pyrimidin-6-yl)-1H-imidazol-5-yl)pyridin-2-yl)carbamate], the IC50 in assay [1] (values in nM) was found to be 15 nM; in assay [2] (values in nM), 7.9 nM.

Consider `COC(=O)Nc1ccc(-c2cnc([C@@H]3C[C@@H](OC)c4cc(-c5c(-n6cnnn6)ccc(Cl)c5F)cc(=O)n43)[nH]2)cc1` [Example 152, Methyl (4-(2-((1R,3S)-7-(3-chloro-2-fluoro-6-(1H-tetrazol-1-yl)phenyl)-1-methoxy-5-oxo-1,2,3,5-tetrahydroindolizin-3-yl)-1H-imidazol-5-yl)phenyl)carbamate], for which the values for the IC50 in assay [1] (values in nM) and in assay [2] (values in nM) were 1.5 nM and 0.3 nM, respectively.

Consider `Cc1nc(N)ccc1-c1cnc([C@@H]2C[C@@H](C)c3cc(-c4c(-n5cnnn5)ccc(Cl)c4F)cc(=O)n32)[nH]1` [Example 50, (1R,3S)-3-(5-(6-Amino-2-methylpyridin-3-yl)-1H-imidazol-2-yl)-7-(3-chloro-2-fluoro-6-(1H-tetrazol-1-yl)phenyl)-1-methyl-2,3-dihydroindolizin-5(1H)-one], for which the IC50 in assay [1] (values in nM) was found to be 16 nM; in assay [2] (values in nM), 1.4 nM.

As for `C[C@H]1C[C@@H](c2ncc(-c3ccnc(C#N)c3)[nH]2)n2c1cc(-c1c(-n3cnnn3)ccc(Cl)c1F)cc2=O` (relative stereo) [Example 32, 4-(2-((1S,3S)-7-(3-Chloro-2-fluoro-6-(1H-tetrazol-1-yl)phenyl)-1-methyl-5-oxo-1,2,3,5-tetrahydroindolizin-3-yl)-1_H-imidazol-5-yl)picolinonitrile], the IC50 was determined as 90.7 nM in assay [1] (values in nM) and 11.2 nM in assay [2] (values in nM).

For the compound `O=c1cc(-c2c(-n3cnnn3)ccc(Cl)c2F)nc2n1[C@H](c1nc(-c3ccnc(OCC(O)C(F)(F)F)c3F)c[nH]1)CC21CC1` (single isomer, unassigned) [Example 74, (S)-2′-(3-chloro-2-fluoro-6-(1H-tetrazol-1-yl)phenyl)-6′-(4-(3-fluoro-2-((R*)-3,3,3-trifluoro-2-hydroxypropoxy)pyridin-4-yl)-1H-imidazol-2-yl)-6′,7′-dihydro-4′H-spiro[cyclopropane-1,8′-pyrrolo[1,2-a]pyrimidin]-4′-one], the IC50 in assay [1] (values in nM) came to 27.7 nM; in assay [2] (values in nM), 32.1 nM.

With `C[C@H]1C[C@@H](c2ncc(-c3ccc4c(c3)CC(=O)N4)[nH]2)n2c1nc(-c1c(-n3cnnn3)ccc(Cl)c1F)cc2=O` (stereo in doubt) [Example 113, (6*S,8*S)-2-(3-Chloro-2-fluoro-6-(1H-tetrazol-1-yl)phenyl)-8-methyl-6-(5-(2-oxoindolin-5-yl)-1H-imidazol-2-yl)-7,8-dihydropyrrolo[1,2-a]pyrimidin-4(6H)-one], the IC50 is 16.8 nM in assay [1] (values in nM) and 0.7 nM in assay [2] (values in nM).

Take `CCO[C@@H]1C[C@@H](c2ncc(-c3ccc(N)nc3F)[nH]2)n2c1cc(-c1c(-n3cnnn3)ccc(Cl)c1F)cc2=O` [Example 139, (1R,3S)-3-(5-(6-Amino-2-fluoropyridin-3-yl)-1H-imidazol-2-yl)-7-(3-chloro-2-fluoro-6-(1H-tetrazol-1-yl)phenyl)-1-ethoxy-2,3-dihydroindolizin-5(1H)-one]: the IC50 in assay [1] (values in nM) came to 18 nM; in assay [2] (values in nM), 0.3 nM.

As for `C[C@@H]1C[C@H](c2ncc(-c3cnnn3C)[nH]2)n2c1nc(-c1c(-n3cnnn3)ccc(Cl)c1F)cc2=O` (relative stereo) [Example 135, (6*R,8*R)-2-(3-Chloro-2-fluoro-6-(1H-tetrazol-1-yl)phenyl)-8-methyl-6-(5-(1-methyl-1H-1,2,3-triazol-5-yl)-1H-imidazol-2-yl)-7,8-dihydropyrrolo[1,2-a]pyrimidin-4(6H)-one], the IC50 in assay [1] (unit μM) is greater than 10000 nM; in assay [2] (unit μM), 2700 nM.

As to `Cc1c(-c2cnc([C@H]3C[C@H](C)c4cc(-c5c(-n6cnnn6)ccc(Cl)c5F)cc(=O)n43)[nH]2)ccnc1C#N` (relative stereo) [Example 31, 4-(2-((1S*,3R*)-7-(3-Chloro-2-fluoro-6-(1H-tetrazol-1-yl)phenyl)-1-methyl-5-oxo-1,2,3,5-tetrahydroindolizin-3-yl)-1H-imidazol-5-yl)-3-methylpicolinonitrile], the IC50 in assay [1] (values in nM) was 635 nM; in assay [2] (values in nM), 250 nM.

In the case of `C[C@@H]1CC(c2ncc(-c3cnc(N)c(F)c3)[nH]2)n2c1cc(-c1c(-n3cnnn3)ccc(Cl)c1F)cc2=O` (stereo in doubt) [Example 60, (1*R)-3-(5-(6-Amino-5-fluoropyridin-3-yl)-1H-imidazol-2-yl)-7-(3-chloro-2-fluoro-6-(1H-tetrazol-1-yl)phenyl)-1-methyl-2,3-dihydroindolizin-5(1H)-one], the results for the IC50 in assay [1] (values in nM) and in assay [2] (values in nM) were 185 nM and 47.8 nM, respectively.

In the case of `O=c1cc(-c2c(-n3cnnn3)ccc(Cl)c2F)nc2n1[C@H](c1nc(-c3ccnc(OCC(O)C(F)(F)F)c3F)c[nH]1)CC21CC1` (single isomer, unassigned) [Example 73, (S)-2′-(3-chloro-2-fluoro-6-(1H-tetrazol-1-yl)phenyl)-6′-(4-(3-fluoro-2-((S*)-3,3,3-trifluoro-2-hydroxypropoxy)pyridin-4-yl)-1H-imidazol-2-yl)-6′,7′-dihydro-4′H-spiro[cyclopropane-1,8′-pyrrolo[1,2-a]pyrimidin]-4′-one], the IC50 in assay [1] (values in nM) worked out at 54.8 nM; in assay [2] (values in nM) it was 22.1 nM.

For the origin of these results see patent US20230097157A1, “Bicyclic Pyridin-2-one and pyrimidin-4-one Derivatives Useful As a Factor XIa Inhibitors” (Janssen Pharmaceutica NV, priority 2021, published 2023).
